Data from ChEMBL document CHEMBL1201862, “PubChem BioAssay data set” (2004).
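Dose response: 5 concentrations. Exposure: 48 h. Format: 96-well plates. Endpoint: linear interpolation; highest concentration if not reached. GI50 marks 50% less growth.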 Calls of active or inactive are those of the source. Cut-off read from the data, not from the text of the source: active = GI50 up to about 1.1 µM and inactive = higher.

Key:
Experiment in all cases: growth of human tumour cells (NCI), 48 h
OVCAR-4 = tested on: OVCAR-4
SK-MEL-5 = tested on: SK-MEL-5
UACC-257 = tested on: UACC-257
786-0 = tested on: 786-0
HT-29 = tested on: HT-29
U-251 = tested on: U-251
CCRF-CEM = tested on: CCRF-CEM
OVCAR-5 = tested on: OVCAR-5
SNB-78 = tested on: SNB-78
DMS-114 = tested on: DMS-114
SNB-19 = tested on: SNB-19
A498 = tested on: A498
NCI-H522 = tested on: NCI-H522
SK-MEL-2 = tested on: SK-MEL-2
Malme-3M = tested on: Malme-3M
COLO 205 = tested on: COLO 205
OVCAR-8 = tested on: OVCAR-8
DMS-273 = tested on: DMS-273

Measured: GI50

Cc1ccc(-c2nc3ccccc3c(=O)n2NCC2(O)OCC(O)C(O)C2O)cc1 (stereo not drawn)
inactive: OVCAR-4 > 100 µM | SK-MEL-5 > 100 µM | UACC-257 > 100 µM | 786-0 > 100 µM | HT-29 > 100 µM | U-251 > 100 µM | CCRF-CEM > 100 µM | OVCAR-5 > 100 µM | SNB-78 > 100 µM | DMS-114 > 100 µM | SNB-19 > 100 µM | A498 > 100 µM | NCI-H522 > 100 µM | SK-MEL-2 > 100 µM | Malme-3M > 100 µM | COLO 205 > 100 µM | OVCAR-8 > 100 µM | DMS-273 > 100 µM

C[C@]12CC[C@H](O)CC1=CC[C@@H]1C2CC[C@]2(C)NC(=O)C(C#N)CC12 (stereo partly drawn)
inactive: OVCAR-4 > 100 µM | SK-MEL-5 > 100 µM | UACC-257 > 100 µM | 786-0 > 100 µM | HT-29 > 100 µM | U-251 > 100 µM | CCRF-CEM > 100 µM | OVCAR-5 > 100 µM | SNB-78 > 100 µM | DMS-114 > 100 µM | A498 > 100 µM | SK-MEL-2 > 100 µM | Malme-3M > 100 µM | OVCAR-8 > 100 µM | DMS-273 > 100 µM

Cc1cccc(C)c1NC(=O)C(=O)C1C(=O)NC(=O)NC1=O
inactive: OVCAR-4 > 100 µM | SK-MEL-5 > 100 µM | UACC-257 > 100 µM | 786-0 > 100 µM | HT-29 > 100 µM | U-251 > 100 µM | CCRF-CEM > 100 µM | OVCAR-5 > 100 µM | SNB-78 > 100 µM | DMS-114 > 100 µM | SNB-19 > 100 µM | A498 > 100 µM | NCI-H522 > 100 µM | Malme-3M > 100 µM | COLO 205 > 100 µM | OVCAR-8 > 100 µM | DMS-273 > 100 µM

CC1CN1c1c(C(=O)/C=C/c2ccccc2)c(-c2ccccc2)nn(C)c1=O (stereo not drawn)
inactive: OVCAR-4 16.2 µM | SK-MEL-5 15.9 µM | UACC-257 18.1 µM | 786-0 15.9 µM | HT-29 15.7 µM | U-251 16.9 µM | CCRF-CEM 13.4 µM | OVCAR-5 20.3 µM | SNB-78 18.2 µM | DMS-114 23 µM | SNB-19 24.4 µM | A498 17.7 µM | NCI-H522 13.4 µM | SK-MEL-2 16.3 µM | Malme-3M 19.7 µM | COLO 205 16.2 µM | OVCAR-8 19.1 µM | DMS-273 16.7 µM

CCC(=O)N1C(=O)OCC1C(C)C (stereo not drawn)
inactive: OVCAR-4 > 100 µM | SK-MEL-5 > 100 µM | UACC-257 > 100 µM | 786-0 > 100 µM | HT-29 > 100 µM | U-251 > 100 µM | CCRF-CEM > 100 µM | OVCAR-5 > 100 µM | SNB-78 > 100 µM | DMS-114 > 100 µM | SNB-19 > 100 µM | A498 > 100 µM | SK-MEL-2 > 100 µM | Malme-3M > 100 µM | COLO 205 > 100 µM | OVCAR-8 > 100 µM | DMS-273 > 100 µM

CC(C)(C)c1ccc(Oc2ccc(C#N)c(C#N)c2)c(C(C)(C)C)c1
inactive: OVCAR-4 49.7 µM | SK-MEL-5 31.3 µM | UACC-257 29.4 µM | 786-0 52.6 µM | HT-29 34.3 µM | U-251 33.7 µM | CCRF-CEM 23.2 µM | OVCAR-5 > 21 µM | SNB-78 42.5 µM | DMS-114 19.6 µM | SNB-19 49.5 µM | A498 > 63.5 µM | NCI-H522 17.2 µM | SK-MEL-2 40.6 µM | Malme-3M > 100 µM | COLO 205 28.3 µM | OVCAR-8 51.4 µM | DMS-273 15.2 µM

CCCNCc1nc2ccc(Br)cc2c(=O)n1CCC
inactive: OVCAR-4 14.6 µM | SK-MEL-5 7.55 µM | UACC-257 13.3 µM | 786-0 15.8 µM | HT-29 15.1 µM | U-251 13.3 µM | CCRF-CEM 3.27 µM | SNB-78 17.5 µM | DMS-114 10.8 µM | SNB-19 16.8 µM | A498 18.1 µM | NCI-H522 13.4 µM | SK-MEL-2 12.4 µM | Malme-3M 13.5 µM | COLO 205 14.6 µM | OVCAR-8 13.4 µM | DMS-273 12.4 µM

N#CC(/C(=N\NC(N)=S)C(=O)NC1C2CC3CC(C2)CC1C3)c1ccc(Cl)cc1 (stereo not drawn)
inactive: OVCAR-4 > 100 µM | SK-MEL-5 > 100 µM | UACC-257 > 100 µM | 786-0 > 100 µM | HT-29 > 100 µM | U-251 > 100 µM | CCRF-CEM > 100 µM | OVCAR-5 > 100 µM | SNB-78 > 100 µM | DMS-114 > 100 µM | SNB-19 > 100 µM | A498 > 100 µM | NCI-H522 > 100 µM | SK-MEL-2 > 100 µM | Malme-3M > 100 µM | COLO 205 > 100 µM | OVCAR-8 > 100 µM | DMS-273 > 100 µM

Cc1cc2c(=O)cc(-c3ccc(C(=O)O)cc3)oc2c(C(N)=O)c1C
inactive: OVCAR-4 > 100 µM | SK-MEL-5 > 100 µM | UACC-257 > 100 µM | 786-0 > 100 µM | HT-29 > 100 µM | U-251 > 100 µM | CCRF-CEM > 100 µM | OVCAR-5 > 100 µM | SNB-78 > 100 µM | DMS-114 > 100 µM | SNB-19 > 100 µM | A498 > 100 µM | NCI-H522 > 100 µM | SK-MEL-2 > 100 µM | Malme-3M > 100 µM | COLO 205 > 100 µM | OVCAR-8 > 100 µM | DMS-273 > 100 µM

N#CC1(C#N)C(c2ccccc2)C=CC12OCCCO2 (stereo not drawn)
inactive: OVCAR-4 59.4 µM | SK-MEL-5 53.8 µM | UACC-257 27.4 µM | 786-0 31.9 µM | HT-29 47.5 µM | U-251 45.2 µM | CCRF-CEM 26.9 µM | OVCAR-5 51.5 µM | SNB-78 31.6 µM | DMS-114 24.3 µM | SNB-19 > 100 µM | A498 48.6 µM | NCI-H522 16.3 µM | SK-MEL-2 72.4 µM | Malme-3M 42.2 µM | COLO 205 26.2 µM | OVCAR-8 17.7 µM | DMS-273 32.3 µM

COc1cc(/C=N/c2nncs2)ccc1O
inactive: OVCAR-4 > 100 µM | SK-MEL-5 > 100 µM | UACC-257 > 100 µM | 786-0 > 100 µM | HT-29 > 100 µM | U-251 > 100 µM | CCRF-CEM > 100 µM | OVCAR-5 > 100 µM | SNB-78 > 100 µM | DMS-114 > 100 µM | SNB-19 > 100 µM | A498 > 100 µM | SK-MEL-2 > 100 µM | Malme-3M > 100 µM | OVCAR-8 > 100 µM | DMS-273 > 100 µM

COc1ccc2c3ccc4c(c3n(C)c2c1)C(=O)c1ccccc1C4=O
inactive: OVCAR-4 17.8 µM | SK-MEL-5 > 100 µM | UACC-257 > 100 µM | 786-0 13.4 µM | HT-29 11.7 µM | U-251 63.8 µM | CCRF-CEM > 100 µM | SNB-78 > 100 µM | DMS-114 > 100 µM | SNB-19 > 100 µM | A498 48.4 µM | NCI-H522 > 100 µM | Malme-3M 85.7 µM | COLO 205 75.2 µM | OVCAR-8 36.9 µM | DMS-273 > 100 µM

CN1OC2OC(=O)OC2[C@H]1[C@H]1O[C@H](c2ccccc2)OC1(C)c1cc(OC(=O)c2ccccc2)ccc1OC(=O)c1ccccc1 (stereo partly drawn)
inactive: OVCAR-4 > 50 µM | SK-MEL-5 > 50 µM | UACC-257 > 50 µM | 786-0 > 50 µM | HT-29 > 50 µM | U-251 > 50 µM | CCRF-CEM > 50 µM | OVCAR-5 > 50 µM | SNB-78 > 50 µM | DMS-114 > 50 µM | SNB-19 > 50 µM | NCI-H522 > 50 µM | SK-MEL-2 > 50 µM | Malme-3M > 50 µM | COLO 205 > 50 µM | OVCAR-8 > 50 µM | DMS-273 > 50 µM

COC1=CC(C)C2C[C@H]3O[C@H](O)C[C@H]4C(C)C(=O)C(O)C([C@@]2(C)C1=O)[C@@]34C (stereo partly drawn)
inactive: SK-MEL-5 > 100 µM | UACC-257 > 100 µM | 786-0 > 100 µM | HT-29 > 100 µM | U-251 > 10 µM | CCRF-CEM > 100 µM | SNB-78 > 100 µM | DMS-114 > 100 µM | A498 > 100 µM | NCI-H522 > 100 µM | Malme-3M > 100 µM | COLO 205 > 100 µM | OVCAR-8 > 100 µM | DMS-273 > 100 µM

COC(=O)C1CC(OC(C)=O)C=C2C(=O)CCC21 (stereo not drawn)
inactive: OVCAR-4 19 µM | SK-MEL-5 20.5 µM | UACC-257 16.8 µM | 786-0 18.5 µM | U-251 28.3 µM | CCRF-CEM 16.8 µM | SNB-78 24.1 µM | DMS-114 15 µM | SNB-19 26.2 µM | A498 37.9 µM | NCI-H522 1.89 µM | SK-MEL-2 29 µM | Malme-3M 19.6 µM | COLO 205 18.7 µM | OVCAR-8 18.5 µM | DMS-273 17.2 µM

Cc1cc(O)c2c(c1)C(O)(c1ccc3c(c1O)C(=O)c1c(O)cc(C)cc1C3(O)C1OC(CO)C(O)C(O)C1O)c1cccc(O)c1C2=O (stereo not drawn)
inactive: OVCAR-4 12.9 µM | SK-MEL-5 18.9 µM | UACC-257 13.7 µM | 786-0 15.3 µM | HT-29 20.5 µM | U-251 11.6 µM | CCRF-CEM 8.34 µM | OVCAR-5 18.1 µM | SNB-78 16.1 µM | DMS-114 9.91 µM | SNB-19 16.4 µM | A498 13.6 µM | Malme-3M 11.7 µM | OVCAR-8 13.4 µM | DMS-273 15.1 µM
